{"source": "patent US8192962B2", "about": "“Processes for detecting toxic substances” (Daikin Industries, Ltd., priority 2001, dated 2012)", "system": "Unknown protein yeast genes", "experiment": "DNA chip mRNA expression in yeast, unknown protein yeast genes (Table 1)", "format": "cell-based, Saccharomyces cerevisiae S288C", "method_in_brief": "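Expression change after 2 h toxicant exposure (growth-inhibiting, sub-lethal) of log-phase S. cerevisiae S288C at 25° C. Oligo-dT-purified mRNA was labeled with Cy3-dUTP or Cy5-dUTP and hybridized >12 h at 65° C. to a genome-wide chip; ratio of scanned fluorescence to control.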"}
{"smiles": "CN(C)C(=S)SSC(=S)N(C)C", "note": "[(10), Tetramethylthiuram disulfide]", "values": [{"measurement": "The level of expressed mRNA in the presence of chemical substance/The level of expressed mRNA in the absence of chemical substance", "setting": "yeast gene YKL086W, incubated two hours with chemical substance", "value": 20.5}, {"measurement": "The level of expressed mRNA in the presence of chemical substance/The level of expressed mRNA in the absence of chemical substance", "setting": "yeast gene YKL151C, incubated two hours with chemical substance", "value": 3.5}, {"measurement": "The level of expressed mRNA in the presence of chemical substance/The level of expressed mRNA in the absence of chemical substance", "setting": "yeast gene YKL153W, incubated two hours with chemical substance", "value": 1.4}, {"measurement": "The level of expressed mRNA in the presence of chemical substance/The level of expressed mRNA in the absence of chemical substance", "setting": "yeast gene YKL195W, incubated two hours with chemical substance", "value": 2.1}, {"measurement": "The level of expressed mRNA in the presence of chemical substance/The level of expressed mRNA in the absence of chemical substance", "setting": "yeast gene YKR011C", "value": 4.4}, {"measurement": "The level of expressed mRNA in the presence of chemical substance/The level of expressed mRNA in the absence of chemical substance", "setting": "yeast gene YKR091W, incubated two hours with chemical substance", "value": 1.6}, {"measurement": "The level of expressed mRNA in the presence of chemical substance/The level of expressed mRNA in the absence of chemical substance", "setting": "yeast gene YLR054C, incubated two hours with chemical substance", "value": 1.1}, {"measurement": "The level of expressed mRNA in the presence of chemical substance/The level of expressed mRNA in the absence of chemical substance", "setting": "yeast gene YLR149C, incubated two hours with chemical substance", "value": 5.2}, {"measurement": "The level of expressed mRNA in the presence of chemical substance/The level of expressed mRNA in the absence of chemical substance", "setting": "yeast gene YLR152C, incubated two hours with chemical substance", "value": 1.1}, {"measurement": "The level of expressed mRNA in the presence of chemical substance/The level of expressed mRNA in the absence of chemical substance", "setting": "yeast gene YLR194C, incubated two hours with chemical substance", "value": 1.1}, {"measurement": "The level of expressed mRNA in the presence of chemical substance/The level of expressed mRNA in the absence of chemical substance", "setting": "yeast gene YLR324W, incubated two hours with chemical substance", "value": 1.4}, {"measurement": "The level of expressed mRNA in the presence of chemical substance/The level of expressed mRNA in the absence of chemical substance", "setting": "yeast gene YLR350W, incubated two hours with chemical substance", "value": 1.4}, {"measurement": "The level of expressed mRNA in the presence of chemical substance/The level of expressed mRNA in the absence of chemical substance", "setting": "yeast gene YLR387C, incubated two hours with chemical substance", "value": 3.0}, {"measurement": "The level of expressed mRNA in the presence of chemical substance/The level of expressed mRNA in the absence of chemical substance", "setting": "yeast gene YLR460C", "value": 31.6}, {"measurement": "The level of expressed mRNA in the presence of chemical substance/The level of expressed mRNA in the absence of chemical substance", "setting": "yeast gene YML117W, incubated two hours with chemical substance", "value": 1.4}, {"measurement": "The level of expressed mRNA in the presence of chemical substance/The level of expressed mRNA in the absence of chemical substance", "setting": "yeast gene YMR009W, incubated two hours with chemical substance", "value": 2.2}, {"measurement": "The level of expressed mRNA in the presence of chemical substance/The level of expressed mRNA in the absence of chemical substance", "setting": "yeast gene YMR067C, incubated two hours with chemical substance", "value": 3.5}, {"measurement": "The level of expressed mRNA in the presence of chemical substance/The level of expressed mRNA in the absence of chemical substance", "setting": "yeast gene YMR090W", "value": 6.1}, {"measurement": "The level of expressed mRNA in the presence of chemical substance/The level of expressed mRNA in the absence of chemical substance", "setting": "yeast gene YMR095C, incubated two hours with chemical substance", "value": 1.4}, {"measurement": "The level of expressed mRNA in the presence of chemical substance/The level of expressed mRNA in the absence of chemical substance", "setting": "yeast gene YMR097C, incubated two hours with chemical substance", "value": 2.1}, {"measurement": "The level of expressed mRNA in the presence of chemical substance/The level of expressed mRNA in the absence of chemical substance", "setting": "yeast gene YMR102C, incubated two hours with chemical substance", "value": 2.6}, {"measurement": "The level of expressed mRNA in the presence of chemical substance/The level of expressed mRNA in the absence of chemical substance", "setting": "yeast gene YMR107W, incubated two hours with chemical substance", "value": 17.1}, {"measurement": "The level of expressed mRNA in the presence of chemical substance/The level of expressed mRNA in the absence of chemical substance", "setting": "yeast gene YMR180C, incubated two hours with chemical substance", "value": 2.2}, {"measurement": "The level of expressed mRNA in the presence of chemical substance/The level of expressed mRNA in the absence of chemical substance", "setting": "yeast gene YMR184W, incubated two hours with chemical substance", "value": 0.9}, {"measurement": "The level of expressed mRNA in the presence of chemical substance/The level of expressed mRNA in the absence of chemical substance", "setting": "yeast gene YMR191W, incubated two hours with chemical substance", "value": 3.5}, {"measurement": "The level of expressed mRNA in the presence of chemical substance/The level of expressed mRNA in the absence of chemical substance", "setting": "yeast gene YMR295C, incubated two hours with chemical substance", "value": 0.8}, {"measurement": "The level of expressed mRNA in the presence of chemical substance/The level of expressed mRNA in the absence of chemical substance", "setting": "yeast gene YMR316W, incubated two hours with chemical substance", "value": 3.0}, {"measurement": "The level of expressed mRNA in the presence of chemical substance/The level of expressed mRNA in the absence of chemical substance", "setting": "yeast gene YNL044W, incubated two hours with chemical substance", "value": 0.8}, {"measurement": "The level of expressed mRNA in the presence of chemical substance/The level of expressed mRNA in the absence of chemical substance", "setting": "yeast gene YNL074C, incubated two hours with chemical substance", "value": 2.0}, {"measurement": "The level of expressed mRNA in the presence of chemical substance/The level of expressed mRNA in the absence of chemical substance", "setting": "yeast gene YNL092W, incubated two hours with chemical substance", "value": 1.5}, {"measurement": "The level of expressed mRNA in the presence of chemical substance/The level of expressed mRNA in the absence of chemical substance", "setting": "yeast gene YNL115C, incubated two hours with chemical substance", "value": 1.9}, {"measurement": "The level of expressed mRNA in the presence of chemical substance/The level of expressed mRNA in the absence of chemical substance", "setting": "yeast gene YNL156C, incubated two hours with chemical substance", "value": 1.9}, {"measurement": "The level of expressed mRNA in the presence of chemical substance/The level of expressed mRNA in the absence of chemical substance", "setting": "yeast gene YNL234W, incubated two hours with chemical substance", "value": 3.3}, {"measurement": "The level of expressed mRNA in the presence of chemical substance/The level of expressed mRNA in the absence of chemical substance", "setting": "yeast gene YNL281W, incubated two hours with chemical substance", "value": 1.6}, {"measurement": "The level of expressed mRNA in the presence of chemical substance/The level of expressed mRNA in the absence of chemical substance", "setting": "yeast gene YNL305C, incubated two hours with chemical substance", "value": 2.1}, {"measurement": "The level of expressed mRNA in the presence of chemical substance/The level of expressed mRNA in the absence of chemical substance", "setting": "yeast gene YNR068C, incubated two hours with chemical substance", "value": 14.4}, {"measurement": "The level of expressed mRNA in the presence of chemical substance/The level of expressed mRNA in the absence of chemical substance", "setting": "yeast gene YOL032W, incubated two hours with chemical substance", "value": 3.0}, {"measurement": "The level of expressed mRNA in the presence of chemical substance/The level of expressed mRNA in the absence of chemical substance", "setting": "yeast gene YOL036W, incubated two hours with chemical substance", "value": 2.8}, {"measurement": "The level of expressed mRNA in the presence of chemical substance/The level of expressed mRNA in the absence of chemical substance", "setting": "yeast gene YOL047C, incubated two hours with chemical substance", "value": 2.3}, {"measurement": "The level of expressed mRNA in the presence of chemical substance/The level of expressed mRNA in the absence of chemical substance", "setting": "yeast gene YOL071W, incubated two hours with chemical substance", "value": 2.3}, {"measurement": "The level of expressed mRNA in the presence of chemical substance/The level of expressed mRNA in the absence of chemical substance", "setting": "yeast gene YOL082W, incubated two hours with chemical substance", "value": 2.0}, {"measurement": "The level of expressed mRNA in the presence of chemical substance/The level of expressed mRNA in the absence of chemical substance", "setting": "yeast gene YOL083W, incubated two hours with chemical substance", "value": 2.3}, {"measurement": "The level of expressed mRNA in the presence of chemical substance/The level of expressed mRNA in the absence of chemical substance", "setting": "yeast gene YOL117W, incubated two hours with chemical substance", "value": 4.1}, {"measurement": "The level of expressed mRNA in the presence of chemical substance/The level of expressed mRNA in the absence of chemical substance", "setting": "yeast gene YOL131W, incubated two hours with chemical substance", "value": 8.1}, {"measurement": "The level of expressed mRNA in the presence of chemical substance/The level of expressed mRNA in the absence of chemical substance", "setting": "yeast gene YOL150C", "value": 8.3}, {"measurement": "The level of expressed mRNA in the presence of chemical substance/The level of expressed mRNA in the absence of chemical substance", "setting": "yeast gene YOL162W, incubated two hours with chemical substance", "value": 6.8}, {"measurement": "The level of expressed mRNA in the presence of chemical substance/The level of expressed mRNA in the absence of chemical substance", "setting": "yeast gene YOR019W, incubated two hours with chemical substance", "value": 7.1}, {"measurement": "The level of expressed mRNA in the presence of chemical substance/The level of expressed mRNA in the absence of chemical substance", "setting": "yeast gene YOR197W, incubated two hours with chemical substance", "value": 0.7}, {"measurement": "The level of expressed mRNA in the presence of chemical substance/The level of expressed mRNA in the absence of chemical substance", "setting": "yeast gene YOR338W", "value": 3.5}, {"measurement": "The level of expressed mRNA in the presence of chemical substance/The level of expressed mRNA in the absence of chemical substance", "setting": "yeast gene YPL087W, incubated two hours with chemical substance", "value": 2.2}, {"measurement": "The level of expressed mRNA in the presence of chemical substance/The level of expressed mRNA in the absence of chemical substance", "setting": "yeast gene YPL196W, incubated two hours with chemical substance", "value": 2.8}, {"measurement": "The level of expressed mRNA in the presence of chemical substance/The level of expressed mRNA in the absence of chemical substance", "setting": "yeast gene YPL206C, incubated two hours with chemical substance", "value": 1.1}, {"measurement": "The level of expressed mRNA in the presence of chemical substance/The level of expressed mRNA in the absence of chemical substance", "setting": "yeast gene YPL222W, incubated two hours with chemical substance", "value": 3.4}, {"measurement": "The level of expressed mRNA in the presence of chemical substance/The level of expressed mRNA in the absence of chemical substance", "setting": "yeast gene YPR023C, incubated two hours with chemical substance", "value": 2.8}, {"measurement": "The level of expressed mRNA in the presence of chemical substance/The level of expressed mRNA in the absence of chemical substance", "setting": "yeast gene YPR151C, incubated two hours with chemical substance", "value": 9.5}]}
